From patent publication US12409171B2, “Pharmaceutically active pyrazolo-pyridone modulators of DCN1/2-mediated cullin neddylation” (UNIVERSITY OF KENTUCKY RESEARCH FOUNDATION, priority 2019, dated 2025)

Each compound was assayed against DCN1 (Homo sapiens (Human), UniProt Q96GG9) (assay: TR-FRET binding assay (biotin-DCN1 / Ac-UBE2M12-AlexaFluor488)). Conditions: mean ± SD (n); read-out: DCN1_TRFRET Mean EC50.
Chain of DCN1 (Q96GG9 whole entry): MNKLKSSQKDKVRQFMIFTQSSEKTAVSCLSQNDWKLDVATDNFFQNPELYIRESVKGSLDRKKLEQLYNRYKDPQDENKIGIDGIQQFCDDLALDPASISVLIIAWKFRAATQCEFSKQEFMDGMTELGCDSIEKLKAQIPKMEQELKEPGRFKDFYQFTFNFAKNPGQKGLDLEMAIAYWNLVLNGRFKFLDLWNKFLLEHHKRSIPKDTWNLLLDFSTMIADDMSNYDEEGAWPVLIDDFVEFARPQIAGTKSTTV
Method in brief: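 Biotinylated DCN1 binding to Ac-UBE2M12-AlexaFluor488 read by TR-FRET; assay cocktail pre-incubated 1 h at room temperature before compounds added from DMSO stocks by pin transfer. IC50 is the mean of three replicates ± SD; compounds tested in triplicate or more.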
`CCN1C(=O)[C@@H](N(CC)C(=O)c2cccc(C)c2)[C@@H](c2ccc(F)cc2)c2c(C)nn(-c3ccccc3)c21` [RG-0009505, N-ethyl-N-[(4S,5S)-7-ethyl-4-(4-fluorophenyl)-3-methyl-6-oxo-1-phenyl-1H,4H,5H,6H,7H-pyrazolo[3,4-b]pyridin-5-yl]-3-methylbenzamide] gave an EC50 of 2.62 ± 0.404 µM.
`Cc1nn(-c2ccccc2)c2c1[C@H](c1ccc(F)cc1)[C@H](NC(=O)c1cccc(C(F)(F)F)c1)C(=O)N2CCO[Si](C)(C)C(C)(C)C` [RG-0014164, N-[(4S,5S)-7-{2-[(tert-butyldimethylsilyl)oxy]ethyl}-4-(4-fluorophenyl)-3-methyl-6-oxo-1-phenyl-1H,4H,5H,6H,7H-pyrazolo[3,4-b]pyridin-5-yl]-3-(trifluoromethyl)benzamide] was tested, and the EC50 was over 36.5 µM.
`CCN1C(=O)[C@@H](NC(=O)c2cccc(C(F)(F)F)c2)[C@@H](c2ccc(F)cc2)c2c(CN3CCC(F)(F)CC3)nn(-c3ccccc3)c21` [RG-0014146, N-[(4S,5S)-3-[(4,4-difluoropiperidin-1-yl)methyl]-7-ethyl-4-(4-fluorophenyl)-6-oxo-1-phenyl-1H,4H,5H,6H,7H-pyrazolo[3,4-b]pyridin-5-yl]-3-(trifluoromethyl)benzamide] was tested, and the EC50 was 0.321 ± 0.0273 µM.
With `CCN1C(=O)[C@@H](NC(=O)c2cccc(C)c2)[C@@H](C(C)C)c2c(C)nn(-c3ccccc3)c21` [RG-0008876, N-[(4S,5S)-7-ethyl-3-methyl-6-oxo-1-phenyl-4-(propan-2-yl)-1H,4H,5H,6H,7H-pyrazolo[3,4-b]pyridin-5-yl]-3-methylbenzamide] the EC50 was 1.75 ± 0.165 µM.
`CCN1C(=O)[C@@H](NC(=O)c2cccc(Oc3ccccc3)c2)[C@@H](c2ccc(F)cc2)c2c(C)nn(-c3ccccc3)c21` [RG-0013976, N-[(4S,5S)-7-ethyl-4-(4-fluorophenyl)-3-methyl-6-oxo-1-phenyl-1H,4H,5H,6H,7H-pyrazolo[3,4-b]pyridin-5-yl]-3-phenoxybenzamide] showed an EC50 of 5.93 ± 0.606 µM.
Work on `CCN1C(=O)[C@@H](NC(=O)c2ccc(C)s2)[C@@H](c2ccc(F)cc2)c2c(C)nn(-c3ccccc3)c21` [RG-0014062, N-[(4S,5S)-7-ethyl-4-(4-fluorophenyl)-3-methyl-6-oxo-1-phenyl-1H,4H,5H,6H,7H-pyrazolo[3,4-b]pyridin-5-yl]-5-methylthiophene-2-carboxamide] yielded an EC50 of 2.34 ± 0.0772 µM.
`CC/C=C/C(=O)N[C@@H]1C(=O)N(CC)c2c(c(C)nn2-c2ccccc2)[C@@H]1c1ccc(F)cc1` [RG-0014157, (2E)-N-[(4S,5S)-7-ethyl-4-(4-fluorophenyl)-3-methyl-6-oxo-1-phenyl-1H,4H,5H,6H,7H-pyrazolo[3,4-b]pyridin-5-yl]pent-2-enamide] gave an EC50 of over 30.7 µM.
For `CCN1C(=O)[C@@H](NC(=O)c2cccc(-c3ccccc3)c2)[C@@H](c2ccc(F)cc2)c2c(C)nn(-c3ccccc3)c21` [RG-0013978, N-[(4S,5S)-7-ethyl-4-(4-fluorophenyl)-3-methyl-6-oxo-1-phenyl-1H,4H,5H,6H,7H-pyrazolo[3,4-b]pyridin-5-yl]-[1,1′-biphenyl]-3-carboxamide], the EC50 was 1.31 ± 0.0973 µM.
Work on `Cc1nn(-c2ccccc2)c2c1[C@H](c1ccc(F)cc1)[C@H](NC(=O)c1cccc(C(F)(F)F)c1)C(=O)N2C` [RG-0008885, N-[(4S,5S)-4-(4-fluorophenyl)-3,7-dimethyl-6-oxo-1-phenyl-1H,4H,5H,6H,7H-pyrazolo[3,4-b]pyridin-5-yl]-3-(trifluoromethyl)benzamide] yielded an EC50 of 0.943 ± 0.0863 µM.
With `CCN1C(=O)[C@@H](NC(=O)c2cccc(C(F)(F)F)c2)[C@@H](c2cncs2)c2c(C)nn(-c3ccccc3)c21` [RG-0014005, N-[(4S,5S)-7-ethyl-3-methyl-6-oxo-1-phenyl-4-(1,3-thiazol-5-yl)-1H,4H,5H,6H,7H-pyrazolo[3,4-b]pyridin-5-yl]-3-(trifluoromethyl)benzamide] the EC50 was 1.92 ± 0.0752 µM.
Work on `CCN1C(=O)[C@@H](NC(=O)c2cccc(C(F)(F)F)c2)[C@@H](c2ccc(F)cc2)c2c(CNC(=O)CCOCCOCCNC(=O)CCCC[C@@H]3SC[C@@H]4NC(=O)N[C@@H]43)nn(-c3ccccc3)c21` [RG-0014159, N-[(4S,5S)-3-({3-[2-(2-{5-[(3aS,4S,6aR)-2-oxo-hexahydro-1H-thieno[3,4-d]imidazol-4-yl]pentanamido}ethoxy)ethoxy]propanamido}methyl)-7-ethyl-4-(4-fluorophenyl)-6-oxo-1-phenyl-1H,4H,5H,6H,7H-pyrazolo[3,4-b]pyridin-5-yl]-3-(trifluoromethyl)benzamide] yielded an EC50 of 0.0896 ± 0.0109 µM.
Compound `CCOC(=O)Cn1nc(C)c2c1N(CC)C(=O)[C@@H](NC(=O)c1cccc(C(F)(F)F)c1)[C@H]2c1ccc(F)cc1` [RG-0014038, ethyl 2-[(4S,5S)-7-ethyl-4-(4-fluorophenyl)-3-methyl-6-oxo-5-[3-(trifluoromethyl)benzamido]-1H,4H,5H,6H,7H-pyrazolo[3,4-b]pyridin-1-yl]acetate] has an EC50 of 3.53 ± 0.458 µM.
`CCN1C(=O)[C@@H](NC(=O)c2cccc(C(F)(F)F)c2)[C@@H](c2ccc(F)cc2)c2c(CNC(=O)CC(C)C)nn(-c3ccccc3)c21` [RG-0014052, N-[(4S,5S)-7-ethyl-4-(4-fluorophenyl)-3-[(3-methylbutanamido)methyl]-6-oxo-1-phenyl-1H,4H,5H,6H,7H-pyrazolo[3,4-b]pyridin-5-yl]-3-(trifluoromethyl)benzamide] was tested, and the EC50 was 0.114 ± 0.00867 µM.
`CC(=O)NCN1C(=O)[C@@H](NC(=O)c2cccc(C(F)(F)F)c2)[C@@H](c2ccc(F)cc2)c2c(C)nn(-c3ccccc3)c21` [RG-0013840, N-[(4S,5S)-7-(acetamidomethyl)-4-(4-fluorophenyl)-3-methyl-6-oxo-1-phenyl-1H,4H,5H,6H,7H-pyrazolo[3,4-b]pyridin-5-yl]-3-(trifluoromethyl)benzamide] was tested, and the EC50 was over 36.5 µM.
`CCN1C(=O)[C@@H](NC(=O)c2cccc(OC)c2)[C@@H](c2ccc(F)cc2)c2c(C)nn(-c3ccccc3)c21` [RG-0013979, N-[(4S,5S)-7-ethyl-4-(4-fluorophenyl)-3-methyl-6-oxo-1-phenyl-1H,4H,5H,6H,7H-pyrazolo[3,4-b]pyridin-5-yl]-3-methoxybenzamide] gave an EC50 of 0.629 ± 0.0648 µM.
`CCN1C(=O)[C@@H](NC(=O)c2ccc(F)c(C)c2)[C@@H](c2ccc(F)cc2)c2c(C)nn(-c3ccccc3)c21` [RG-0014168, N-[(4S,5S)-7-ethyl-4-(4-fluorophenyl)-3-methyl-6-oxo-1-phenyl-1H,4H,5H,6H,7H-pyrazolo[3,4-b]pyridin-5-yl]-4-fluoro-3-methylbenzamide] was tested, and the EC50 was 1.69 ± 0.115 µM.
Work on `CCN1C(=O)[C@@H](NC(=O)c2cccc(C(F)(F)F)c2)[C@@H](c2cccs2)c2c(C)nn(-c3ccccc3)c21` [RG-0013988, N-[(4S,5S)-7-ethyl-3-methyl-6-oxo-1-phenyl-4-(thiophen-2-yl)-1H,4H,5H,6H,7H-pyrazolo[3,4-b]pyridin-5-yl]-3-(trifluoromethyl)benzamide] yielded an EC50 of 1.33 ± 0.0507 µM.
Compound `CCN1C(=O)[C@@H](NC(=O)c2cccc(C(F)(F)F)c2)[C@@H](c2ccc(F)nc2)c2c(CN)nn(-c3ccccc3)c21` [RG-0014006, N-[(4S,5S)-3-(aminomethyl)-7-ethyl-4-(6-fluoropyridin-3-yl)-6-oxo-1-phenyl-1H,4H,5H,6H,7H-pyrazolo[3,4-b]pyridin-5-yl]-3-(trifluoromethyl)benzamide] has an EC50 of 0.135 ± 0.007 µM.
Compound `Cc1cccc(C(=O)N[C@@H]2C(=O)N3CCCn4nc(C)c(c43)[C@@H]2c2ccc(F)cc2)c1` [RG-0008682, N-[(5S,6S)-5-(4-fluorophenyl)-3-methyl-7-oxo-1,2,8-triazatricyclo[6.3.1.0^4,^12]dodeca-2,4(12)-dien-6-yl]-3-methylbenzamide] has an EC50 of 12.3 µM.
In the case of `CCN1C(=O)[C@@H](NC(=O)c2cccc(C)c2)[C@@H](c2ccc(F)cc2)c2c(C)nn(CC(F)(F)F)c21` [RG-0008871, N-[(4S,5S)-7-ethyl-4-(4-fluorophenyl)-3-methyl-6-oxo-1-(2,2,2-trifluoroethyl)-1H,4H,5H,6H,7H-pyrazolo[3,4-b]pyridin-5-yl]-3-methylbenzamide], the EC50 is reported as 0.729 ± 0.0901 µM.
`CCN1C(=O)[C@@H](NC(=O)c2cccc(C(F)(F)F)c2)[C@@H](c2ccc(F)cc2)c2c(CN3CCC(C)CC3)nn(-c3ccccc3)c21` [RG-0014143, N-[(4S,5S)-7-ethyl-4-(4-fluorophenyl)-3-[(4-methylpiperidin-1-yl)methyl]-6-oxo-1-phenyl-1H,4H,5H,6H,7H-pyrazolo[3,4-b]pyridin-5-yl]-3-(trifluoromethyl)benzamide] showed an EC50 of 0.0827 ± 0.00769 µM.
For `CCCN1CCN2C(=O)[C@@H](NC(=O)c3cccc(C)c3)[C@@H](c3ccc(F)cc3)C(C(C)=O)=C12` [RG-0008677, N-[(6S,7S)-8-acetyl-7-(4-fluorophenyl)-5-oxo-1-propyl-1H,2H,3H,5H,6H,7H-imidazo[1,2-a]pyridin-6-yl]-3-methylbenzamide], the EC50 was 5.79 µM.
`CCN1C(=O)[C@@H](NC(=O)c2cccc(C(F)(F)F)c2)[C@@H](c2ccc(F)cc2)c2c(CNS(N)(=O)=O)nn(-c3ccccc3)c21` [RG-0014161, N-[(4S,5S)-7-ethyl-4-(4-fluorophenyl)-6-oxo-1-phenyl-3-[(sulfamoylamino)methyl]-1H,4H,5H,6H,7H-pyrazolo[3,4-b]pyridin-5-yl]-3-(trifluoromethyl)benzamide] showed an EC50 of 0.145 ± 0.0262 µM.
With `CCN1C(=O)[C@@H](NC(=O)c2cccc(C(F)(F)F)c2)[C@@H](c2ccc(F)cc2)c2c(CN3CCC(F)CC3)nn(-c3ccccc3)c21` [RG-0014147, N-[(4S,5S)-7-ethyl-4-(4-fluorophenyl)-3-[(4-fluoropiperidin-1-yl)methyl]-6-oxo-1-phenyl-1H,4H,5H,6H,7H-pyrazolo[3,4-b]pyridin-5-yl]-3-(trifluoromethyl)benzamide] the EC50 was 0.112 ± 0.016 µM.
`CCN1C(=O)[C@@H](NC(=O)c2cccc(C(F)(F)F)c2)[C@@H](c2ccc(F)cc2)c2c(CNS(C)(=O)=O)nn(-c3ccccc3)c21` [RG-0014140, N-[(4S,5S)-7-ethyl-4-(4-fluorophenyl)-3-(methanesulfonamidomethyl)-6-oxo-1-phenyl-1H,4H,5H,6H,7H-pyrazolo[3,4-b]pyridin-5-yl]-3-(trifluoromethyl)benzamide] gave an EC50 of 0.0947 ± 0.0197 µM.
